Measurements taken from patent publication US5214204A, “Arylamidoalkyl-N-hydroxyurea compounds having lipoxygenase inhibitory activity” (Abbott Laboratories, priority 1991, dated 1993).

What follows are compounds tested against T1, 5-Lipoxygenase from HWBL-1 20,000 xg Supernatant (Rattus norvegicus, UniProt P12527) (assay: 5-lipoxygenase inhibition, 20,000 xg supernatant of homogenized HWBL-1 cells, radiolabeled arachidonic acid). Details: read-out: IC50 (in vitro inhibitory potency against 5-lipoxygenase).
T1 construct: 20,000 xg supernatant from 1.5 million homogenized HWBL-1 cells; endogenous in cells
T1 sequence (P12527 1-673): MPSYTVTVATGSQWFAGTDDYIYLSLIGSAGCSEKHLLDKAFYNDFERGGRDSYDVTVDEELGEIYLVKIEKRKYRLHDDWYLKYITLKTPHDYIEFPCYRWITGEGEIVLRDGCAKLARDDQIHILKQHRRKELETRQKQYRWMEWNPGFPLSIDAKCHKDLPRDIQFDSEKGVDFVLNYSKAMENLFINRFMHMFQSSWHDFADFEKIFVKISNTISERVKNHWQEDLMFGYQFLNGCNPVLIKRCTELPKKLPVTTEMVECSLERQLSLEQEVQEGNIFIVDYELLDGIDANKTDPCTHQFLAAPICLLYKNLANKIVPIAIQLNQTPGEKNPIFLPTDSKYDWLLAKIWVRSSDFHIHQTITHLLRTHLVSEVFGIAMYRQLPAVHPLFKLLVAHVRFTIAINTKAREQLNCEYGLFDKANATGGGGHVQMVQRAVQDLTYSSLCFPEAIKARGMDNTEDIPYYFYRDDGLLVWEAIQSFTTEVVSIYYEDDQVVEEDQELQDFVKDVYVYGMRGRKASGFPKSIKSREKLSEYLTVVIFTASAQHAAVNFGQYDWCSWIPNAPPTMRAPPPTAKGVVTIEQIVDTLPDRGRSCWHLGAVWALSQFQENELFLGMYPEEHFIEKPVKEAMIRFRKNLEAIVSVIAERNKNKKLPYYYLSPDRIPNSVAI
Assay type: biochemical
Experimental: Assays to determine 5-lipoxygenase inhibitory activity of representative compounds of the present invention were performed in […] incubations containing the 20,000 xg supernatant from 1.5 million homogenized HWBL-1 cells and various concentrations of the test compound. Reactions were initiated by addition of radiolabeled arachidonic acid and terminated by acidification and ether extraction. Reaction products were separated from nonconverted substrate by thin layer chromatography and measured by liquid scintillation spectroscopy. All incubations are performed in triplicate. Inhibition of 5-lipoxygenase activity was calculated as the ratio of the amount of product formed in the presence and absence of inhibitor. IC50 values (concentration of compound producing 50% enzyme inhibition) were calculated by linear regression analysis of percentage inhibition versus log inhibitor concentration plots. (Dyer, R. D.; Haviv, F.; Hanel, A. M.; Bornemier, D. A.; Carter, G. W. Fed. Proc., Fed. Am. Soc. Exp. Biol. 1984, 43, 1462A).
In Vitro Inhibitory Potencies of Compounds of this Invention
Against 5-Lipoxygenase from HWBL-1 20,000 xg Supernatant

Compound	IC50 [µM]
CC(CNC(=O)OC(C)(C)C)N(O)C(N)=O (stereo not drawn) [Example 85, (d.l)-N-Hydroxy-N-[3-((tert-butyoxycarbonyl)amino)prop-2-yl]urea]	0.29
NC(=O)N(O)CC(=O)Nc1cccc(Oc2ccccc2)c1 [Example 1, N-Hydroxy-N-[(((3-phenoxyphenyl)amino)carbonyl)methyl]urea]	0.48
CC(Oc1ccc(C(=O)NCCN(O)C(N)=O)cc1)c1ccccc1 (stereo not drawn) [Example 66, N-Hydroxy-N-[2-((4-(1-phenylethyloxy)benzoyl)amino)ethyl]urea]	0.25
CN(CCN(O)C(N)=O)C(=O)c1cccc(Oc2ccccc2)c1 [Example 15]	0.64
COc1ccc(CN(C)CCN(O)C(N)=O)cc1OCc1ccccc1 [Example 41, N-Hydroxy-N-[2-(((((4-methoxy-3-phenylmethoxy)phenyl)methyl)-N-methyl)amino)ethyl]urea]	1.6
CC(Oc1cccc(C(=O)NCCN(O)C(N)=O)c1)c1ccccc1 (stereo not drawn) [Example 67, N-Hydroxy-N-[2-((3-(1-phenylethyloxy)benzoyl)amino)ethyl]urea]	0.35
CNC(=O)N(O)CCNC(=O)c1cccc(Oc2ccccc2)c1 [Example 24, N-Hydroxy-N'-methyl-N-[2-((3-phenoxybenzoyl)amino)ethyl]urea]	0.29
COc1ccc(C(=O)NCCN(O)C(N)=O)cc1 [Example 17]	5
NC(=O)N(O)CCCCNC(=O)c1cccc(Oc2ccccc2)c1 [Example 22, N-Hydroxy-N-[4-((3-phenoxybenzoyl)amino)butyl]urea]	0.33
CC(CNC(=O)c1cccc(Oc2ccccc2)c1)N(O)C(N)=O (stereo not drawn) [Example 33, N-Hydroxy-N-[3-((3-phenoxybenzoyl)amino)prop-2-yl]urea]	0.61
NC(=O)N(O)CCNC(=O)COc1ccc(Oc2ccccc2)cc1 [Example 72, N-Hydroxy-N-[2-((4-phenoxyphenoxyacetyl)amino)ethyl] urea]	0.11
CCCCOc1ccc(C(=O)NCCN(O)C(N)=O)cc1 [Example 18]	0.25
NC(=O)N(O)CC(=O)Nc1cccc(OCc2ccccc2)c1 [Example 3, N-Hydroxy-N-[(((3-phenylmethoxyphenyl)amino)carbonyl)methyl]urea]	0.87
COc1cccc(C(=O)NCCN(O)C(N)=O)c1 [Example 16]	1.9
CCCCCCOc1ccc(C(=O)NCCN(O)C(N)=O)cc1 [Example 57, N-Hydroxy-N-[2-((4-n-hexyloxybenzoyl)amino)ethyl]urea]	0.29
NC(=O)N(O)CCNC(=O)c1cccc(Oc2cc(Cl)cc(Cl)c2)c1 [Example 30, N-Hydroxy-N-[2-((3-(3.5-dichlorophenoxy)benzoyl)amino)ethyl]urea]	0.34
CC(C)Oc1cccc(C(=O)NCCN(O)C(N)=O)c1 [Example 46, N-Hydroxy-N-[2-((3-(1-methylethoxy)benzoyl)amino)ethyl]urea]	0.29
NC(=O)N(O)CCNC(=O)c1cccc(Oc2ccc(Cl)c(Cl)c2)c1 [Example 29, N-Hydroxy-N-[2-((3-(3,4-dichlorophenoxy)benzoyl)amino)ethyl]urea]	0.3
NC(=O)N(O)CCNS(=O)(=O)c1ccc2ccccc2c1 [Example 48, N-Hydroxy-N-[2-((naphth-2-ylsulfonyl)amino)ethyl]urea]	1.1
CNC(=O)N(O)CCNC(=O)c1cccc(Oc2ccc(Cl)cc2)c1 [Example 27, N-Hydroxy-N'-methyl-N-[2-((3-(4-chlorophenoxy)benzoyl)amino)ethyl]urea]	0.76

Next, values leading:

IC50 [µM]	Compound
0.1	NC(=O)N(O)CCNC(=O)c1ccc2ccccc2n1 [Example 75, N-Hydroxy-N-[2-((quinolin-2-oyl)amino)ethyl]urea]
0.31	CN(CCN(O)C(N)=O)Cc1cccc(Oc2ccc(Cl)c(Cl)c2)c1 [Example 39, N-Hydroxy-N-[2-(N-methyl((3-(3,4-dichlorophenoxy)phenyl)methyl)amino)ethyl]urea]
6.3	CN(C(=O)CN(O)C(N)=O)c1cccc(Oc2ccccc2)c1 [5, step 2]
0.93	NC(=O)N(O)CCNC(=O)c1csc(-c2ccccc2)n1 [Example 84, N-Hydroxy-N-[2-((2-phenylthiazol-4-oyl)amino)ethyl]urea]
1	COc1ccc2cc(/C=C(\C)C(=O)NCCN(O)C(N)=O)ccc2c1 [Example 76, N-Hydroxy-N-[2-(((3-(6-methoxynaphth-2-yl)prop-2-en-2-yl)carbonyl)amino)ethyl]urea]
0.23	C=C(C)COc1cccc(C(=O)NCCN(O)C(N)=O)c1 [Example 47, N-Hydroxy-N-[2-((3-(2-methyl-prop-2-enyloxy)benzoyl)amino)ethyl]urea]
6.6	CC(/C=C/c1ccc(Br)cc1)NC(=O)CN(O)C(N)=O (stereo not drawn) [Example 11, N-Hydroxy-N-[(((trans-4-(4-bromophenyl)but-3-en-2-yl)amino)carbonyl)methyl]urea]
5	CC(C)Cc1ccc(C(C)C(=O)NCCN(O)C(N)=O)cc1 (stereo not drawn) [Example 82, N-Hydroxy-N-[2-((2-(4-(2-methylpropyl)phenyl)propionyl)amino)ethyl]urea]
5.8	CC(CN(O)C(N)=O)N(C)C(=O)c1cccc(Oc2ccc(Cl)cc2)c1 (stereo not drawn) [Example 50, N-Hydroxy-N-[2-(((3-(4-chlorophenoxy)benzoyl)-N-methyl)amino)propyl]urea]
0.23	COc1ccc(Oc2cccc(C(=O)NCCN(O)C(N)=O)c2)cc1 [Example 28, N-Hydroxy-N-[2-((3-(4-methoxyphenoxy)benzoyl)amino)ethyl]urea]
0.38	NC(=O)N(O)CCNC(=O)c1ccc(-c2ccccc2)cc1 [Example 34, N-Hydroxy-N-[2-((4-phenylbenzoyl)amino)ethyl]urea]
7.3	CNC(=O)N(O)CC(=O)N(C)c1cccc(Oc2ccccc2)c1 [5, step 3]
0.39	CC(C(=O)NCCN(O)C(N)=O)c1cccc(C(C)c2ccccc2)c1 (stereo not drawn) [Example 69, N-Hydroxy-N-[2-(((3-(1-phenylethyl)phenyl)propion-2-yl)amino)ethyl]urea]
1.8	CN(CCN(O)C(N)=O)C(=O)Cc1ccc(Br)cc1 [Example 14, N-Hydroxy-N-[2-(((4-bromophenylacetyl)-N-methyl)amino)ethyl]urea]
2.8	CN(C(=O)CN(O)C(N)=O)c1cccc(OCc2ccccc2)c1 [Example 9, N-Hydroxy-N-[((N-methyl-(3-phenylmethoxyphenyl)amino)carbonyl)methyl]urea]
0.1	NC(=O)N(O)CCNC(=O)c1cscc1Sc1ccc(Cl)cc1 [Example 59, N-Hydroxy-N-[2-((4-(4-chlorothiophenoxy)thien-3-oyl)amino)ethyl]urea]
4.5	NC(=O)N(O)CCNC(=O)c1ccc(Cl)cc1 [Example 20, N-Hydroxy-N-[2-((4-chlorobenzoyl)amino)ethyl]urea]
0.83	CC(/C=C\c1cccc(Oc2ccccc2)c1)NC(=O)CN(O)C(N)=O (stereo not drawn) [Example 13]
0.39	NC(=O)N(O)CCNC(=O)CCc1ccccc1 [Example 77, N-Hydroxy-N-[2-((3-phenylpropionyl)amino)ethyl]urea]
0.43	NC(=O)N(O)CCNC(=O)c1cccc(Oc2cccc(C(F)(F)F)c2)c1 [Example 25, N-Hydroxy-N-[2-((3-(3-trifluoromethylphenoxy)benzoyl)amino)ethyl]urea]
0.22	NC(=O)N(O)CCNC(=O)c1cccc(C(=O)c2ccccc2)c1 [Example 65, N-Hydroxy-N-[2-((3-benzoylbenzoyl)amino)ethyl]urea]
0.91	N-Hydroxy-N-[2-((3-(4-chlorophenylsulfonyl)benzoyl)amino)ethyl]urea [Example 62]
0.47	CC(C)(C)c1ccc(Oc2cccc(C(=O)NCCN(O)C(N)=O)c2)cc1 [Example 31, N-Hydroxy-N-[2-((3-(4-tert-butylphenoxy)benzoyl)amino)ethyl]urea]
0.29	NC(=O)N(O)CCNC(=O)c1cccn1Cc1ccc(Cl)cc1 [Example 49, N-Hydroxy-N-[2-(((1-(4-chlorophenylmethyl)pyrrol-2-yl)carbonyl)amino)ethyl]urea]
0.44	NC(=O)N(O)CCNC(=O)Cc1ccccc1Nc1c(Cl)cccc1Cl [Example 83, N-Hydroxy-N-[2((2-(2.6-dichlorophenylamino)phenylacetyl)amino)ethyl]urea]
